# In patent publication US12337024B2, “Larazotide formulations” (Interlude Biopharma Co., priority 2019, dated 2025):
# Where two headings read alike, the source gives them in different places. Ends that are not written are not given here.
# Assays:
# mice on the Western diet = tested on: mice on the Western diet
# Description: 77 DIAMOND™ mice were placed on either normal chow (NDNW) or Western Diet (WDSW) and aged up to 8, 20, 28, 36, and 40 weeks, then dosed with 4 kDa FITC-dextran at 600 mg/kg body weight by gavage. Four hours after the dosing, at least 20 μL of serum was taken by tail vein nick. A competition ELISA, which measures small dextran polymers (conjugated or unconjugated), was used to quantify serum dextran concentration.
# The subsequent experiment evaluated the effects of orally administered larazotide acetate to mice on the Western diet. The study design is depicted in FIG. 2. Specifically, 8 groups of mice were placed on WDSW diets for 16 weeks and administered larazotide (dosed in drinking water or oral gavage), pioglitazone comparator, or vehicle from 8-16 weeks. Improvement in leaky gut was assessed by dosing the mice with unconjugated dextran at 600 mg/kg via oral gavage at baseline and end of study, serum was collected 4 hours later, and serum dextran concentrations were measured.
# tight junction = assay: Activity as tight junction regulators
# celiac disease symptoms = conditions: clinical trials, cited from earlier work
substance,measurement,setting,value
GGVLVQPG [larazotide],gut integrity,"mice on the Western diet; mice on Western diet, larazotide from 8-16 weeks, drinking water or oral gavage, FIG. 3",improved gut integrity
same,activity as tight junction regulator when mixed with fragments,tight junction; full length larazotide mixed with fragments GVLVQPG and VLVQPG,activity is completely abolished
same,reduction of celiac disease symptoms,"celiac disease symptoms; higher doses (e.g., 1 mg and 2 mg doses)","attenuation of activity, or no activity at all"
same,reduction of celiac disease symptoms,"celiac disease symptoms; lower doses (e.g., 0.5 mg dose)",benefit at reducing celiac disease symptoms
GVLVQPG (Synthetic polymer) [larazotide-derived fragment missing N-terminal glycine residue],activity as tight junction regulators,tight junction,inactive
VLVQPG (Synthetic polymer) [larazotide-derived fragment missing N-terminal glycine residues],activity as tight junction regulators,tight junction,inactive
larazotide acetate,serum dextran concentrations,"mice on the Western diet; mice on Western diets, various doses, serum 4 hours after dextran 600 mg/kg gavage",successful in lowering the serum dextran concentrations
